Measurements published in patent US9066965B1, “Purified limonin glucoside for prevention and treatment of chronic diseases” (The United States of America, as represented by the …, priority 2012, dated 2015).
“And” between values parts separate entries of the source, which are not always exact repeats. Equal values may be shown once.

Experiments:
[1] = test system: alanine amino transferase (ALT); experiment: Serum alanine amino transferase (CMP); assay type: in vivo, human; settings: 500 mg/d, 56 days
Description: (§1) CMP performed on serum samples at the chemistry laboratory of University of California Medical Center by using the Beckman Coulter DxC800. GGT and CKMB were determined in the EDTA plasma. GGT activity was determined by using Integra 400 Chemistry Analyzer, Roche Diagnostics. CKMB concentration was determined by using the Multiplex kits from Mesoscale Discovery (Gaithersburg, Md. 20877).
(§2) SAS PROC MIXED was used to fit the cross-over model (Littell R C, Milliken G A, Stroup W W, Wolfinger R D, Schabenberger O. SAS System for Mixed Models. Cay, N.C.: SAS Institute Inc.; 2006). Transformations were used when appropriate to stabilize the variances among the diets and periods. The fixed effects were order, diet, the interaction and the covariate; and the random effect was subjects within order. The test for order is a test for carry-over effect. […] Comparisons were made between the values at the end of placebo and LG treatments and using the baseline data as a covariate. Results are presented as means±SEM. Differences were considered statistically significant for P value<0.05.

[2] = test system: gamma glutamyl transferase (GGT); experiment: Plasma GGT activity (Integra 400); assay type: in vivo, human; settings: 56 days
Description: as §1, §2

[3] = test system: complement fraction 3 (C3); experiment: Serum C3 concentration (Integra 400 Plus); assay type: in vivo, human
Description: (§3) Plasma concentrations of epidermal growth factor (EGF), interleukin-13 (IL-13), interleukin-1 receptor antagonist (IL-1Ra), and tumor necrosis factor α (TNF α) were analyzed in EDTA plasma on a Sector Imager 2400 instrument using a multiplex kits from MSD (Meso-Scale Discovery, Gaithersburg, Md.). Concentrations of C reactive protein (CRP), and complement 3 and 4 (C3, C4) were analyzed in serum by using an Integra 400 Plus Chemistry Analyzer, (Roche Diagnostics Corp., Indianapolis, Ind.). Serum amyloid A (SAA), soluble intracellular adhesion molecule-1 (sICAM-1), and soluble vascular cell adhesion molecule-1 (sVCAM-1) were tested in serum on a Sector Imager 2400 instrument using a multiplex kit from MSD (Meso-Scale Discovery, Gaithersburg, Md.).
(§4) Results are presented as means±SEM.

[4] = Serum/plasma concentrations of inflammatory markers; assay type: in vivo, human
Description: as §3, §4

[5] = test system: prostate specific antigen (PSA); experiment: Plasma free prostate specific antigen in MAP 1.6; assay type: in vivo, human; settings: for decrease of plasma free PSA concentration: vs placebo, n=5
Description: Plasma samples prepared from blood collected in EDTA-containing tubes were stored at −80° C. until tested. The samples were thawed at room temperature, vortexed, spun at 13,000×g for 5 minutes for clarification and 100 uL aliquots were removed for MAP analysis into a master microtiter plate. Using automated pipetting, an aliquot of each sample was introduced into one of the capture microsphere multiplexes of the Human MAP 1.6. This MAP comprised of 89 antigens that included markers for oxidative stress, inflammation, immune status, T2DM, CVD, blood clotting, cancer, liver and kidney functions. All plasma samples were tested in duplicate. The mixture of sample and capture microspheres were thoroughly mixed and incubated at room temperature for 1 hour. Multiplexed cocktails of biotinylated, reporter antibodies for each multiplex were then added robotically and after thorough mixing, were incubated for an additional hour at room temperature. Multiplexes were developed using an excess of streptavidin-phycoerythrin solution which was thoroughly mixed into each multiplex and incubated for 1 hour at room temperature. The volume of each multiplexed reaction was reduced by vacuum filtration and the volume increased by dilution into matrix buffer for analysis. Analysis was performed in a Luminex 100 instrument and the resulting data stream was interpreted using proprietary data analysis software developed at Rules-Based Medicine. For each multiplex, both calibrators and controls were included on each microtiter plate. 8-point calibrators were run in the first and last column of each plate and 3-level controls were included in duplicate. Testing results were determined first for the high, medium and low controls for each multiplex to ensure proper assay performance. Unknown values for each of the analytes localized in a specific multiplex were determined using 4 and 5 parameter, weighted and non-weighted curve fitting algorithms included in the data analysis package. The intra-sample coefficient of variance (CV) for all antigens with concentrations above the lowest detectable dose (LDD) was less than 20%, and was less than 10% for more than 50% of the antigens tested.
as §4

[6] = Comprehensive metabolic panel (CMP) on serum; assay type: in vivo, human
Description: as §1, §2

[7] = test system: Complement 3; experiment: Plasma complement 3 in MAP 1.6; assay type: in vivo, human
Description: Plasma samples prepared from blood collected in EDTA-containing tubes were stored at −80° C. until tested. The samples were thawed at room temperature, vortexed, spun at 13,000×g for 5 minutes for clarification and 100 uL aliquots were removed for MAP analysis into a master microtiter plate. Using automated pipetting, an aliquot of each sample was introduced into one of the capture microsphere multiplexes of the Human MAP 1.6. This MAP comprised of 89 antigens that included markers for oxidative stress, inflammation, immune status, T2DM, CVD, blood clotting, cancer, liver and kidney functions. All plasma samples were tested in duplicate. The mixture of sample and capture microspheres were thoroughly mixed and incubated at room temperature for 1 hour. Multiplexed cocktails of biotinylated, reporter antibodies for each multiplex were then added robotically and after thorough mixing, were incubated for an additional hour at room temperature. […] Testing results were determined first for the high, medium and low controls for each multiplex to ensure proper assay performance. Unknown values for each of the analytes localized in a specific multiplex were determined using 4 and 5 parameter, weighted and non-weighted curve fitting algorithms included in the data analysis package. […]

[8] = test system: alkaline phosphatase (ALP); settings: 500 mg/d, 56 days
Description: as §1, §2

[9] = Adverse effects and tolerability of the LG drink; assay type: in vivo, human
Text: A total of 11 adverse events were reported by 6 subjects for the entire duration of the study (data not shown). Some of these events such as volunteer hurting their back or hand were definitely unrelated to the drinks, while others like a weird taste, dry throat seem related to the drinks, still others such as mild cold or frequent urinating, or rash on chest may or may not be related to the drinks. […] Since the placebo was also the carrier of LG, all adverse events may be due to the placebo drinks.

[10] = serum, End LG, n = 10, mean ± SEM
[11] = serum, End LG, 500 mg/d, 56 days, n = 10, mean ± SEM
[12] = EDTA plasma, End LG, 500 mg/d, 56 days, n = 10, mean ± SEM

**Q.** Which results are given for `CC1(C)O[C@H]2CC(=O)OC[C@]23[C@H]2CC[C@@](C)([C@@H](O[C@@H]4O[C@H](CO)[C@@H](O)[C@H](O)[C@H]4O)c4ccoc4)[C@@]4(O[C@@H]4C(=O)O)[C@]2(C)C(=O)C[C@@H]13` [LG, limonin glucoside]?
**A.** Alanine amino trasferase [1, 10]: 25.2 ± 5.08 U/L; decrease of serum alanine aminotransferase (ALT) activity ([1]; vs end of placebo treatment, p=0.041): 13.1%; GGT ([2]; EDTA plasma, End LG, 500 mg/d, n = 10, mean ± SEM): 25.2 ± 8.0 U/L; decrease of plasma activity of GGT ([2]; vs end of placebo treatment, 0.5 g/d, p=0.001): 33.8% and 33%; C3 [3, 11]: 1.18 ± 0.05 mg/mL; decrease of serum C3 concentration ([3]; vs end of placebo treatment, Integra 400 Plus, p=0.055): 4.8%; EGF [4, 12]: 106.02 ± 52.55 pg/mL; IL-1Ra [4, 12]: 194.93 ± 27.03 pg/mL; IL-13 [4, 12]: 2.42 ± 0.27 pg/mL; TNF a [4, 12]: 0.58 ± 0.20 pg/mL; C4 [4, 11]: 0.29 ± 0.02 mg/mL; CRP [4, 11]: 1.64 ± 0.25 µg/mL; SAA [4, 11]: 4.06 ± 0.77 µg/mL; sICAM-1 [4, 11]: 0.25 ± 0.02 µg/mL; sVCAM-1 [4, 11]: 0.41 ± 0.04 µg/mL; effect on plasma EGF, IL-13, IL-1Ra, TNF α and serum CRP, SAA, sICAM-1, sVCAM-1, C4 ([4]; vs end of placebo treatment): not altered; subjects in whom free PSA concentration was reduced ([5]; 5 men, 5 women): all men and 3 women; Prostate-Specific Antigen, Free ([5]; plasma, MAP 1.6, End LG, 500 mg/d, 56 days, n = 10, mean ± SEM): 0.31 ± 0.11 ng/mL; decrease of plasma free PSA concentration ([5]; men, p=0.059): 14.5%; decrease of plasma free PSA concentration ([5]; women, p=0.309): 22.9%; Albumin [6, 11]: 3.95 ± 0.05 g/dL; Aspartate amino transferase [6, 11]: 23.3 ± 2.22 U/L; CO2 [6, 11]: 29.10 ± 0.48 mEq/L; Calcium [6, 11]: 9.42 ± 0.06 mg/dL; Chloride [6, 11]: 104.80 ± 0.81 mEq/L; Creatinine [6, 11]: 0.84 ± 0.03 mg/dL; Glucose [6, 11]: 89.7 ± 2.58 mg/dL; Lactate dehydrogenase [6, 11]: 126.80 ± 8.90 U/L; Potassium [6, 11]: 4.61 ± 0.12 mEq/L; Protein [6, 11]: 6.59 ± 0.08 g/dL; Sodium [6, 11]: 140.80 ± 0.68 mEq/L; Total bilirubin [6, 11]: 0.81 ± 0.08 mg/dL; Urea [6, 11]: 11.70 ± 0.92 mg/dL; effect on circulating concentration of AST ([6]; vs end of placebo treatment): did not significantly decrease; effect on serum albumin, total protein, glucose, aspartate amino transferase, lactate dehydrogenase, calcium, potassium, sodium, chloride, CO2, creatinine, CKMB, total bilirubin, urea ([6]; vs end of placebo treatment): did not alter; Complement 3 ([7]; plasma, End LG, 500 mg/d, 56 days, n = 10, mean ± SEM): 1.17 ± 0.05 mg/mL; decrease of plasma C3 concentration ([7]; vs end of placebo treatment, p=0.014): 6.4%; Alkaline phosphatase [8, 10]: 59.5 ± 3.47 U/L; decrease of serum alkaline phosphatase (ALP) activity ([8]; vs end of placebo treatment, p=0.025): 10.1%; effect on parameters of CBC, CMP and MAP 1.6 ([9]; 500 mg/d, 56 days): did not adversely affect; serious adverse effects ([9]; 500 mg/d, 56 days): did not have any serious adverse effects; tolerability ([9]; 500 mg/d, 56 days): well tolerated; adverse events reported while taking the drink ([9]; out of the 11 adverse events of the study, 7 on placebo drinks): 4
